The assay has as its system HCV genotype-1a variant with glutamine 30 changed to glutamate in the NS5A protein. Type of assay: cell-based. To be noted: test compound titrated with BMS-790052 fixed at 200 nM; genotype 1a Q30E replicon. In outline:
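Synergy was assessed by combining several fixed amounts of an NS5A-targeting compound with a titration of the second compound of interest.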
(In general: A replicon is a self-replicating genome or part of one, used to study replication in cells.)

Take `CC(C)[C@H](NC(=O)C12CCC(C1)C(C)(C)C2O)c1nc(-c2ccc(-c3ccc(-c4c[nH]c([C@@H](NC(=O)C56CCC(C5)C(C)(C)C6O)C(C)C)n4)cc3)cc2)c[nH]1` (single isomer, unassigned) [Compound Y-113]: the “Fold-Synergistic 1a (Q30E)” value is more than 100 fold.
For `CC(C)(C)[C@H](NC(=O)C1CCC(F)(F)CC1)c1nc2c([nH]1)-c1ccc(-c3ccc4c(ccc5nc([C@@H](NC(=O)C6CCC(F)(F)CC6)C(C)(C)C)[nH]c54)c3)cc1CC2` [Compound B24] the value was more than 100 fold.
For `CC(C)(C)C(NC(=O)C1CCCCN1CC(F)(F)F)c1nc(-c2ccc(-c3ccc(-c4c[nH]c(C(NC(=O)C5CCCCN5CC(F)(F)F)C(C)(C)C)n4)cc3)cc2)c[nH]1` [Compound L-51] the value was more than 100 fold; for `CC(C)(C)[C@H](NC(=O)C1CCC(F)(F)CC1)c1nc2ccc(C#Cc3ccc4nc([C@@H](NC(=O)C5CCC(F)(F)CC5)C(C)(C)C)[nH]c4c3)cc2[nH]1` [Compound B38], more than 100 fold.
In the case of `O=C(c1ccc2c(c1)OCO2)N1CCC[C@H]1c1ncc(-c2ccc(-c3ccc(-c4cnc([C@@H]5CCCN5C(=O)c5ccc6c(c5)OCO6)[nH]4)cc3)cc2)[nH]1` [Compound S-121] it was less than 10 fold; in that of `CC(C)[C@H](NC(=O)c1cc(Cl)ccc1F)c1ncc(-c2ccc3c(c2)Cc2cc(-c4cnc([C@@H](NC(=O)c5cc(Cl)ccc5F)C(C)C)[nH]4)ccc2-3)[nH]1.O=C(O)C(F)(F)F` [Compound N-73], more than 100 fold.
With `CN(C(=O)C(=O)N[C@H](c1nc(-c2ccc(-c3ccc(-c4c[nH]c([C@@H](NC(=O)C(=O)N(C)C5CC5)C(C)(C)C)n4)cc3)cc2)c[nH]1)C(C)(C)C)C1CC1` [Compound W-50], the “Fold-Synergistic 1a (Q30E)” value is more than 100 fold.
In the case of `CC(C)[C@H](NC(=O)c1ccccc1Cl)c1ncc(-c2ccc(-c3ccc(-c4cnc([C@@H](NC(=O)c5ccccc5Cl)C(C)C)[nH]4)cc3)cc2)[nH]1` [Compound S-65] it was more than 100 fold; in that of `CC(C)(C)[C@H](NC(=O)C1(CO)CCCO1)c1nc(-c2ccc(-c3ccc(-c4c[nH]c([C@@H](NC(=O)C5(CO)CCCO5)C(C)(C)C)n4)cc3)cc2)c[nH]1` (single isomer, unassigned) [Compound Y-112], more than 100 fold; in that of `CC1(OC(=O)N2CC(F)CC2C(=O)NC(c2nc(-c3ccc(-c4ccc(-c5c[nH]c(C(NC(=O)C6CC(F)CN6C(=O)OC6(C)CC6)C(C)(C)C)n5)cc4)cc3)c[nH]2)C(C)(C)C)CC1` (stereo not shown) [Compound W-119], more than 100 fold.
For `CC(C)(C)OC(=O)NC1(C(=O)N[C@H](c2nc(-c3ccc(-c4ccc(-c5c[nH]c([C@@H](NC(=O)C6(NC(=O)OC(C)(C)C)CCCCC6)C(C)(C)C)n5)cc4)cc3)c[nH]2)C(C)(C)C)CCCCC1.O=C(O)C(F)(F)F.O=C(O)C(F)(F)F` [Compound L-7] the value was more than 100 fold; for `CC(C)[C@H](NC(=O)C1CCC1)c1ncc(-c2ccc(-c3ccc(-c4cnc([C@@H](NC(=O)C5CCC5)C(C)C)[nH]4)cc3)cc2)[nH]1` [Compound S-22], more than 100 fold.
`CC(=O)c1ccc2cc3cc(-c4cnc([C@@H](NC(=O)C5CCC(F)(F)CC5)C(C)(C)C)[nH]4)ccc3cc2c1` [Compound B28]: the “Fold-Synergistic 1a (Q30E)” value is given as more than 100 fold.
In the case of `CC(C)(C)[C@H](NC(=O)c1ccccc1F)c1nc(-c2ccc(-c3ccc(-c4c[nH]c([C@@H](NC(=O)c5ccccc5F)C(C)(C)C)n4)cc3)cc2)c[nH]1` [Compound P-23] it was more than 100 fold; in that of `CC(C)(C)[C@H](NC(=O)C1CC12CCC(F)(F)CC2)c1nc(-c2ccc(-c3ccc(-c4c[nH]c([C@@H](NC(=O)C5CC56CCC(F)(F)CC6)C(C)(C)C)n4)cc3)cc2)c[nH]1` (single isomer, unassigned) [Compound Y-95], more than 100 fold; in that of `COC(=O)N[C@@H](C(=O)N[C@H](c1ncc(-c2ccc(-c3ccc(-c4cnc([C@@H](NC(=O)[C@H](NC(=O)OC)c5ccccc5)C(C)C)[nH]4)cc3)cc2)[nH]1)C(C)C)c1ccccc1` [Compound P-103], more than 100 fold.
For `CCCOC(=O)N[C@H](c1ncc(-c2ccc(-c3ccc(-c4cnc([C@@H](NC(=O)OCCC)C(C)C)[nH]4)cc3)cc2)[nH]1)C(C)C` [Compound S-208] the value was more than 100 fold; for `COCC(=O)NC1(C(=O)N[C@H](c2nc(-c3ccc(-c4ccc(-c5c[nH]c([C@@H](NC(=O)C6(NC(=O)COC)CCCCC6)C(C)(C)C)n5)cc4)cc3)c[nH]2)C(C)(C)C)CCCCC1` [Compound W-263], more than 100 fold.
As for `CC(C)[C@H](NC(=O)c1c(F)cccc1F)c1ncc(-c2ccc(-c3ccc(-c4cnc([C@@H](NC(=O)c5c(F)cccc5F)C(C)C)[nH]4)cc3)cc2)[nH]1` [Compound S-64], the “Fold-Synergistic 1a (Q30E)” value is more than 100 fold.
As for `CCn1nc(C)cc1C(=O)N[C@H](c1ncc(-c2ccc(-c3ccc(-c4cnc([C@@H](NC(=O)c5cc(C)nn5CC)C(C)C)[nH]4)cc3)cc2)[nH]1)C(C)C` [Compound S-99], the “Fold-Synergistic 1a (Q30E)” value is more than 10 fold.
Turning to `CC(C)(C)[C@H](NC(=O)C1(C(F)(F)F)CC1)c1nc(-c2ccc(-c3ccc(-c4c[nH]c([C@@H](NC(=O)C5(C(F)(F)F)CC5)C(C)(C)C)n4)cc3)cc2)c[nH]1` [Compound P-30], the “Fold-Synergistic 1a (Q30E)” value is given as more than 100 fold.
Turning to `COC(c1ccccc1)C1(C(=O)N[C@H](c2nc(-c3ccc(-c4ccc(-c5c[nH]c([C@@H](NC(=O)C6(C(OC)c7ccccc7)CC6)C(C)(C)C)n5)cc4)cc3)c[nH]2)C(C)(C)C)CC1` (stereo partly shown) [Example N-137], the “Fold-Synergistic 1a (Q30E)” value was less than 10 fold.
As for `CC1CC(C(=O)NC(c2nc(-c3ccc(-c4ccc(-c5c[nH]c(C(NC(=O)C6CC(C)CN6C(=O)OC(C)(C)C)C6(C)CC6)n5)cc4)cc3)c[nH]2)C2(C)CC2)N(C(=O)OC(C)(C)C)C1` (stereo not shown) [Compound W-71], the “Fold-Synergistic 1a (Q30E)” value is on record as more than 100 fold.
In the case of `CC(C)(C)C(NC(=O)C1CC(=O)c2ccccc2C1)c1nc(-c2ccc(-c3ccc(-c4c[nH]c(C(NC(=O)C5CC(=O)c6ccccc6C5)C(C)(C)C)n4)cc3)cc2)c[nH]1` (mixture of isomers) [Compound S-256] it was more than 100 fold; in that of `CC(C)[C@H](NC(=O)CC(c1ccccc1)c1ccccc1)c1ncc(-c2ccc(-c3ccc(-c4cnc([C@@H](NC(=O)CC(c5ccccc5)c5ccccc5)C(C)C)[nH]4)cc3)cc2)[nH]1` [Compound S-30], more than 100 fold.
In the case of `CC1(C)C2CCC(C(=O)N[C@H](c3nc(-c4ccc(-c5ccc(-c6c[nH]c([C@@H](NC(=O)C78CCC(C7)C(C)(C)C8O)C7(C)CC7)n6)cc5)cc4)c[nH]3)C3(C)CC3)(C2)C1O` (single isomer, unassigned) [Compound Y-119] it was more than 100 fold; in that of `CC(C)(C)[C@H](NC(=O)c1ccc(Cl)cn1)c1nc(-c2ccc(-c3ccc(-c4c[nH]c([C@@H](NC(=O)c5ccc(Cl)cn5)C(C)(C)C)n4)cc3)cc2)c[nH]1` [Compound N-53], more than 100 fold; in that of `CC(C)(C)[C@H](NC(=O)C(=O)N1CCC(C(F)(F)F)CC1)c1nc(-c2ccc(-c3ccc(-c4c[nH]c([C@@H](NC(=O)C(=O)N5CCC(C(F)(F)F)CC5)C(C)(C)C)n4)cc3)cc2)c[nH]1` [Compound W-60], more than 100 fold.

Source of the values: patent US20160158200A1, “Combinations of Hepatitis C Virus Inhibitors” (priority 2013, published 2016).
